The term IC50 denotes the concentration needed to halve the response being measured. As usually defined, the CC50 is the concentration at which the toxic effect on the cells reaches its halfway point.

In series [1] the test system is P. falciparum D6, Dd2, Tm90-C2B, Dd2-D1^I22L, D10yDHODH. Put plainly: microbe, parasite or virus in culture. The series is classed as cell-based, Plasmodium falciparum. To be noted: Plasmodium falciparum. The procedure: (§1) Drug susceptibility assays against P. falciparum strains were performed using a SYBR Green based assay. D6 and Dd2 were obtained from MR4. Tm90-C2B was obtained from WRAIR. Dd2-D1^I22L and ELQ-300 were obtained from VAPORHCS. D10yDHODH was obtained as a courtesy from Dr. Akhil Vaidya at Drexel University. P. yoelii ATV^r and ELQ-300^r clones were obtained from VAPORHCS.

The nature of series [2]: cytotoxicity against HepG2 cells. The format is cell-based. Conditions: human, read-out: inhibition IC50 vs HepG2. The procedure: Cytotoxicity was evaluated in human HepG2 liver cells, using an MTT assay. Briefly, HepG2 cells were cultured in complete Dulbecco’s modified Eagle’s medium (DMEM; Gibco-Invitrogen, No. 11995-065) prepared by supplementing DMEM with 10% heat inactivated FBS (Gibco-Invitrogen, No. 16000-036), 100 units/mL penicillin, and 100 µg/mL streptomycin. Cell viability was assessed using trypan blue. Ninety-six-well plates were seeded with 2 × 10^4 cells per well and incubated at 37 °C overnight in a humidified 5% CO2 atmosphere. Test compound plates were prepared with an INTEGRA assist plus station and 96-well plates containing 11 duplicate 2-fold serial dilutions of test compound suspended in DMSO. The diluted test compound was then added to the corresponding well preseeded with HepG2 cells. […] After incubation, 20 µL of a 0.1 mg/mL solution of resazurin diluted in PBS was added to each well, and all plates were subsequently incubated for 3–4 h in an incubator. Absorbance was determined with the Molecular Devices SpectraMax plate reader. Three independent experiments, each in duplicate, were performed, and the IC50 values were determined using GraphPad Prism software (Version 10) using the non-linear regression equation (sigmoidal dose-response, variable slope).

In series [3] the test system is P. falciparum mutant T111 lines. Put plainly: drug susceptibility of T111-selected cyt b mutant lines. Conditions: Plasmodium falciparum, DD2, Supplementary Table 4. The series is classed as cell-based, Plasmodium falciparum. The method, then: DNA extractions were performed on clonal parasites using the QIAamp DNA extraction kit (QIAGEN Inc, Valencia, CA) or ZYMO Quick gDNA Miniprep kit (Zymo Research Corp, Irvine, CA). For sequencing of the open reading frame of pfcytb, PCR was performed with genomic DNA using forward and reverse flanking primers for cyt b primer 1: 5’-[…]-3’ and primer 2: 5’-[…]-3’. PCR products were subjected to enzymatic cleanup with ExoSAP-IT (Thermo Fisher Scientific) and sent for Sanger sequencing (Eurofins Genomics, Louisville, KY) with PCR primer 2 paired with an internal forward primer: 5’-[…]-3’ and an internal reverse primer: 5’-[…]-3’. Sequences were assembled using 4Peaks software (Nucleobytes, Amsterdam, Netherlands) and aligned with Clustal Omega (EMBL-EBI). For sequencing of the open reading frame of pfdhodh, PCR was performed with genomic DNA using forward primer: 5’-[…]-3’ and reverse primer: 5’-[…]-3’. PCR products were prepared for Sanger sequencing and analyzed as described above, except using two forward primers: 5’-[…]-3’ and 5’-[…]-3’ and with two reverse primers: 5’-[…]-3’ and 5’-[…]-3’.
as §1

The conditions of series [4]: cited from earlier work.
Details of series [5]: method as in reviewer #3 remark. To be noted: in humans; ref reviewer #3 remark; cited from earlier work.
Series [6] has as its system P. cynomolgi hypnozoites and schizonts. Put plainly: in vitro liver-stage P. cynomolgi assay in primary rhesus hepatocytes. Conditions: Plasmodium cynomolgi, Hepatocyte, in Macaca mulatta, read-out: inhibition IC50. The format is cell-based, Plasmodium cynomolgi. The method, then: (§2) The liver-stage P. cynomolgi assay was designed to identify anti-hypnozoite drugs utilizing a 384-well in vitro culture system[31],[37]. Briefly, cryopreserved primary simian hepatocytes (donor lots XGB, OQB, and QHO: BioIVT, Inc.) were seeded in collagen-coated 384-well plates and infected with P. cynomolgi bastianellii (B strain) sporozoites dissected from infected Anopheles dirus mosquitoes. Test compounds were solubilized in 100% DMSO and serially diluted 2-fold to generate up to a 12-point dose-response curve, maintaining a final DMSO concentration of 0.1% across all wells. Two distinct treatment modes were evaluated. For the prophylactic assay, to assess the prevention of infection, compound exposure began 1-hour post-infection with daily media changes on Days 1 and 2. For the radical cure assay, to assess activity against established liver forms, drugs were administered daily from Day 4 through Day 7 post-infection. […] For readout on Day 8, plates were fixed and stained via immunofluorescence to visualize parasite forms (hypnozoites and schizonts) and hepatocyte nuclei, and images were acquired using an Operetta CLS high-content imaging system (PerkinElmer). Host hepatocyte viability was measured in parallel to determine compound toxicity. Parasite forms were automatically quantified using Harmony 4.9 software, and percent inhibition and toxicity were calculated relative to in-plate DMSO vehicle controls. IC50 and CC50 (half-maximal cytotoxic concentrations) were determined by fitting dose-response data to a four-parameter logistic (variable slope) model using a custom Python script incorporating a grid search algorithm.

Series [7] can be described thus: host hepatocyte viability in the P. cynomolgi assay. The series is classed as cell-based, rhesus. To be noted: rhesus monkey; radical cure mode; read-out: cytotoxicity CC50. The procedure:
as §2

Series [8] concerns blood-stage P. yoelii. Put plainly: 4-day suppression murine model, oral. The series is classed as in vivo, P. yoelii in CF1 mice. From the text:
(§3) Animals were housed at the VAPORHCS in Thoren Maxi-Miser microisolator cages (78 sq. in. floor space) with a maximum density of five females or four males per cage. Cages were maintained on a 12-h light/dark cycle and provided with autoclaved nesting materials (nestlets) for environmental enrichment. All mice had ad libitum access to food and water. Four- to five-week-old female and male outbred CF1 mice (Charles River Laboratories, Raleigh, NC, USA) were randomly assigned to treatment and control groups using a simple randomization procedure (e.g., computer-generated random numbers) to ensure balanced distribution of baseline body weights and starting parasitemia levels across all cohorts. Groups of four mice (n = 4, mean body weight of each group was ~30 g) were infected intravenously with 3.5 × 10^4 P. yoelii (Kenya strain, MRA-428) from a donor animal. Drug administration commenced the day after the animals were inoculated (Day 1). The test drug or the drug combination was dissolved in PEG-400 and administered by oral gavage once daily for 4 successive days in the 4-day suppression model, but only once on Day 1 in the single-dose cure model. Blood was collected via the tail vein with the aid of a syringe needle on Day 5 and then at weekly intervals through Day 28. Blood films were Giemsa-stained and examined microscopically to determine the level of parasitemia. All mice were observed daily to assess clinical signs. Animals with observable parasitemia following the experiments were euthanized; animals cleared of parasitemia from their bloodstream were observed daily with assessment of parasitemia performed weekly until Day 28, at which point, the animal(s) were scored as cured of the infection and then humanely euthanized. All treated mice with a negative smear on Day 28 were considered cured (100% protection). […]

The subject of series [9] is blood-stage P. yoelii. Kind of series: single-dose cure murine model, oral. The series is classed as in vivo, P. yoelii in CF1 mice.
Text: as §3

In series [10] the test system is luciferase-expressing P. berghei sporozoites. Put plainly: liver-stage prophylaxis murine model with IVIS bioluminescence imaging. The series is classed as in vivo, P. berghei in Albino C57BL/6 mice. Conditions: Days -1, 0, 1. From the text:
Four- to six-week-old female inbred Albino C57BL/6 mice (18–22 g, Jackson Laboratories, Bar Harbor, ME, USA) were utilized. Animals were assigned unique study numbers via ear tags and cage cards and were randomly assigned to treatment or control groups (n = 5 per group) using a weigh-stratified randomization procedure. All animals were quarantined and acclimatized for 7 days prior to study initiation and were housed in a 12:12 light/dark cycle with food and water provided ad libitum. Mice were infected intravenously with 10^4 luciferase-expressing P. berghei sporozoites (ANKA strain) via tail vein injection on Day 0. Drugs were dissolved in PEG-400 and administered orally once per day on Day -1, Day 0, and Day 1. […] Infection reduction was assessed by comparing the bioluminescence signals emitted by treated groups with signals emitted by the vehicle control-treated group at that time point. Later blood-stage parasitemia was determined via flow cytometry. […] Long-term blood-stage efficacy was evaluated starting on Day 6 post-infection and continued for up to 31 days using flow cytometry.
In vivo antimalarial efficacy studies were performed as described above.

“And” between values parts separate entries of the source, which are not always exact repeats. Equal entries are not always repeated. Where two headings read alike, the source gives them in different places.

With `CCN(CC)CCCC(C)Nc1ccnc2cc(Cl)ccc12` (centres unmarked) [CQ, chloroquine], the IC50 in [1] (read-out: in vitro IC50 vs P. falciparum, D6) turned out to be 0.014 ± 0.0007 µM; in series [1] (read-out: in vitro IC50 vs P. falciparum, D10yDHODH), 0.079 ± 0.016 µM; in series [1] (read-out: in vitro IC50 vs P. falciparum, Dd2-D1^I22L (ELQ-300-resistant)) it was 0.209 ± 0.026 µM; in series [1] (read-out: in vitro IC50 vs P. falciparum, Tm90-C2B (cyt b Y268S, ATV-resistant)) it was 0.211 ± 0.0076 µM; in series [3] (Dd2), 0.181 ± 0.015 µM; in [3] (Dd2-A131S-140I-259L-264L), 0.205 ± 0.021 µM. The figures for the IC50 in [3] (Dd2-B131S-140I-259L-264L), in [3] (Dd2-D0119L-131S-259L (pfdhodh mutation)) and in series [3] (Dd2-D1131S-140I-259L (pfdhodh mutation)) were 0.168 ± 0.031 µM, 0.21 ± 0.034 µM and 0.162 ± 0.018 µM, respectively. Moreover, the IC50 at 24 h in series [2] (HepG2) stood at 68.6 µM. Further, the T1/2 result is “about 46 h” in [4] (healthy mice, ref PMID: 21646487) and 480 to 960 h in series [5].

`CO[C@@H]1[C@@H](OC)[C@H](C)[C@@](O)(CC(=O)O)O[C@H]1[C@H](C)[C@H]1O[C@@]2(CC[C@@](C)([C@H]3CC[C@@](C)([C@@H]4O[C@@H]([C@H]5O[C@](C)(O)[C@H](C)C[C@@H]5C)C[C@@H]4O[C@@H]4C[C@H](OC)[C@@H](OC)[C@H](C)O4)O3)O2)C[C@H](O)[C@H]1C` [MAD, maduramicin]: the 50% inhibitory concentration (IC50) in series [6] (prophylactic mode, hypnozoite) is < 0.00098 µM; in [6] (prophylactic mode, schizont), < 0.00098 µM; in series [6] (radical cure mode, hypnozoite) it was 0.021 µM; in series [6] (radical cure mode, schizont), 0.041 µM. Moreover, in series [7], the CC50 at 4 days worked out at 0.36 µM.

As for `COc1cc(C)c2c(Oc3cccc(C(F)(F)F)c3)c(OC)cc(NC(C)CCCN)c2n1` (centres unmarked) [TQ, tafenoquine], the “ED50 of TQ” value in series [8] (TQ + 0.03 mg/kg/d T111) was determined as 0.59 mg/kg/day; in [8] (TQ + 0.06 mg/kg/d T111) it was 0.12 mg/kg/day; in series [8] (TQ + 0.12 mg/kg/d T111), 0.05 mg/kg/day; in series [8] (TQ alone, female CF1 mice), 1.70 mg/kg/day. Besides, the IC50 in [6] (prophylactic mode, hypnozoite) was 0.18 µM; in series [6] (prophylactic mode, schizont), 0.17 µM; in series [6] (radical cure mode, hypnozoite) it was 8.1 µM; in series [6] (radical cure mode, schizont), 9.8 µM. In addition, the “% survival through Day 28” value is 0% in series [9] (TQ 15 + T111 0 mg/kg), 25% in series [9] (TQ 20 + T111 0 mg/kg), 75% in series [9] (TQ 30 + T111 0 mg/kg) and 100% in series [9] (TQ 40 + T111 0 mg/kg). Further, the “number of mice cured on Day 28” value in series [9] (TQ 15 + T111 0 mg/kg) is 0/4; in series [9] (TQ 20 + T111 0 mg/kg), 1/4; in [9] (TQ 30 + T111 0 mg/kg), 3/4; in series [9] (TQ 40 + T111 0 mg/kg), “single-dose cure in all treated mice and 4/4”. In addition, the “parasitemia burden on Day 5” value in [9] (TQ 15 + T111 0 mg/kg), in [9] (TQ 20 + T111 0 mg/kg), in [9] (TQ 30 + T111 0 mg/kg) and in series [9] (TQ 40 + T111 0 mg/kg) was 0 throughout. In addition, the T1/2 in [4] (mouse liver, ref internal data from WRAIR) was 75 h; in series [4] (mouse plasma, ref internal data from WRAIR) it was 50 h; in series [5] it was 336 h. The results for the “protection from liver-stage infection” value in [10] (1 mg/kg/day oral) and in series [10] (10 mg/kg/day oral) were “did not clear liver-stage infection” and “full protection”, respectively. The CC50 at 4 days in series [7] is > 20 µM.

As for `OC(c1cc(C(F)(F)F)nc2c(C(F)(F)F)cccc12)C1CCCCN1` (centres unmarked) [mefloquine], the IC50 at 24 h in series [2] (HepG2 cells) came to 4.94 µM.

These data come from PMC13168289, “Potent acridone antimalarial against all three life stages of Plasmodium” (Nature Communications, 2026).
